According to patent US20080261824A1, “Rationale, methods, and assays for identifying novel taste cell genes and salty taste receptor targets and assays using these identified genes or gene products” (Senomyx, Inc., priority 2006, published 2008):

Tests used:
sodium chloride taste = settings: concentrations that specifically modulate ENaC function; cited from earlier work
[1] = test system: perceived human salt intensity; assay: inventors' test of perceived human salt intensity; format: in vivo
From the text: Unlike other mammals, amiloride has been reported to only slightly reduce the intensity of sodium chloride taste, i.e., by about 15-20% when used at concentrations that specifically modulate ENaC function (Halpern, B. P. (1998) Neuroscience and Behavioral Reviews. 23: 5-47). […] Thus, additional non-ENaC genes are likely involved in human salt taste.

SMILES	reduction of the intensity of sodium chloride taste (sodium chloride taste)	effect on perceived human salt intensity ([1]; tested at 300-fold above IC50 for alpha beta gamma ENaC (10-fold over IC50 for delta beta gamma ENaC))	effect on perceived human salt intensity ([1]; tested at 3000-fold above IC50 for alpha beta gamma ENaC (100-fold over IC50 for delta beta gamma ENaC), levels printed for benzamil)
N=C(N)NC(=O)c1nc(Cl)c(N)nc1N [amiloride]	15-20%	did not elicit a significant effect	
NC(=Nc1ccccc1)NC(=O)c1nc(Cl)c(N)nc1N [phenamil]			did not elicit a significant effect
